Drawing on patent publication US9708359B2, “Pyrrolopyrimidine nucleosides and analogs thereof” (Chimerix, Inc., priority 2015, dated 2017), this text covers EC50 and CC50 for one compound.

In one data set the test system is YFV. Put plainly: microbe, parasite or virus in culture. To be noted: Yellow fever virus, Vero. The class given is cell-based.
The nature of data set [1]: in vitro. As to conditions: human.
Data set [2] is described as follows: Cytotoxicity (CC50) in RAW cells. To be noted: mouse.
Data set [3] can be described thus: in vitro. As to conditions: dog.
In a further data set the test system is RSV. Briefly: microbe, parasite or virus in culture. It is filed as cell-based. To be noted: human respiratory syncytial virus, MA104, MA-104 cells.
The subject of a further data set is JCV. Put plainly: qPCR assay for JCV. The class given is cell-based, JC virus. To be noted: JC polyomavirus, 293TT cells. On the procedure: qPCR Assays for BKV and JCV:
Primary evaluation of compounds against JC virus were also performed by methods similar to those for BK virus primary assays. Secondary assays against JCV were performed in COS7 cells by methods similar to those for BK virus to identify compounds that inhibited adsorption or penetration of the virus.
Primary evaluation of compounds against JC virus were also performed by methods similar to those for BK virus primary assays but were done in 293TT cells and utilized the 1-4 strain of JCV in 293TT cells. Viral DNA was quantified using primers 5′-[…]-3′ (SEQ ID No. 11) and 5′-[…]-3′ (SEQ ID No. 12) and probe 5′-6-FAM-[…]-TAMRA-3′ (SEQ ID No. 13) together with the plasmid pMP508 to provide a standard curve for absolute quantification. Secondary assays against JCV were performed in COS7 cells by methods similar to those for BK virus to identify compounds that inhibited adsorption or penetration of the virus.

A further data set deals with mouse norovirus. Briefly: Mouse Norovirus (MNV) assay in RAW cells.
The next data set deals with HSV-2. Briefly: Plaque-reduction assay for HSV-2. It is filed as cell-based, herpes simplex virus 2. To be noted: Human alphaherpesvirus 2; HSV-2, HFF cells. On the procedure:
Plaque-Reduction Assays for HSV-1, HSV-2, VZV and HCMV:
Monolayers of cells were prepared in six-well plates and incubated at to allow the cells to reach confluency. Media was then aspirated from the wells and of virus was added to each of three wells to yield 20-30 plaques in each well. The virus was allowed to adsorb to the cells for 1 h and the plates were rocked gently every 15 min to redistribute the media. Compounds were diluted in maintenance cell culture media consisting of MEM with Earl's salts supplemented with 2% FBS, L-glutamine, penicillin, and gentamycin. Solutions were added to duplicate wells and the plates were incubated for various times, depending on the virus used. The plaque-reduction assay with HSV-1 strain F was performed in a similar manner but with Vero cells infected one day after plating. For HSV-1 and -2, the monolayers were stained with 1% crystal violet in 20% methanol and the unbound dye removed by washing with dH2O. For assays with HCMV and VZV, the cell monolayer was stained with 1% Neutral Red solution for 4 h then the stain was aspirated and the cells were washed with PBS. For all assays, plaques were enumerated using a stereomicroscope and the concentration of compound that reduced plaque formation by 50% (EC50) was interpolated from the experimental data. […]
In general terms: Plaques are areas of infected cells; plaque reduction assays count them against a control.

The nature of data set [4]: Cytotoxicity in lymphocyte assays, Akata cells. The class given is cell-based. To be noted: human, parallel to EBV assay. On the procedure:
Every antiviral assay included a parallel cytotoxicity assay with the same cells used for each virus, the same cell number, the same drug concentrations, and the same incubation times to provide the same drug exposure. To ensure that the cytotoxicity of all compounds could be compared directly, a standard neutral red uptake cytotoxicity assay for all compounds in confluent HFF cells with a 7 d incubation period was performed.
Cytotoxicity in Lymphocyte Assays:
Cell viability in all assays with lymphocytes was assessed with a luminescent Cell Viability Assay. Briefly, assay plates were incubated at ambient temperature for 30 min then luminescent reagent was added to each well and the plates were mixed to lyse the cells. Plates were then incubated for at ambient temperature and the luminescence was quantified on a luminometer. Standard methods were used to calculate drug concentrations that inhibited the proliferation of cells by 50% (CC50).
Cell viability in all assays with lymphocytes was assessed with the CellTiter-Glo Luminescent Cell Viability Assay (Promega). […] Plates were then incubated for an additional 10 min at ambient temperature and the luminescence was quantified on a luminometer. […]

Like-named read-outs stand apart in the source and are kept apart here. A value given as a limit tells only on which side of the number the result lay.

As for `Cc1nc(N)c2c(C(N)=O)cn([C@@H]3O[C@H](CO)[C@@H](O)[C@H]3O)c2n1` [Compound 1, 4-amino-7-((2R,3R,4S,5R)-3,4-dihydroxy-5-(hydroxymethyl)tetrahydrofuran-2-yl)-2-methyl-7H-pyrrolo[2,3-d]pyrimidine-5-carboxamide], the EC50 (in general, the concentration giving half of the maximal effect) in the data set with YFV was more than 100 µM; with RSV, 31 µM; in the data set with JCV, 0.46 µM; in the data set with mouse norovirus (Norovirus, in Mus musculus, read-out: EC50 value against mouse norovirus, in vitro, unit inferred), approximately 2.1 µM; in the data set on mouse norovirus (Norovirus, in Mus musculus, read-out: MNV Mean EC50, RAW cells) it was 2 µM; with mouse norovirus (murine norovirus, Table 7), 1.7 to 3.6 µM. Besides, the EC50 with HSV-2 is more than 60 µM. Further, the CC50 in the data set “in vitro [1]” is more than 60 µM; in data set [2], 114 µM; in “in vitro [3]”, more than 100 µM; with Vero76 (African green monkey), more than 100 µM; in the data set with Vero76 (Vero76 cells, parallel to DENV-2 assay) it was more than 100 µM; with Vero76 (Vero76 cells, parallel to ENTV-71 assay), more than 100 µM. Further, the CC50 in the data set on Vero76 (Vero76 cells, parallel to POV-3 assay) was more than 100 µM; with Vero76 (Vero76 cells, parallel to WNV assay), more than 100 µM; in data set [4], more than 60 µM.
